Measured values reported in PMC7022392, “Chemoenzymatic Synthesis of Enantiomeric, Bicyclic δ-Halo-γ-lactones with a Cyclohexane Ring, Their Biological Activity and Interaction with Biological Membranes” (Biomolecules, 2020).
In brackets after ≈: the same amount, converted by molar mass. Read-outs that look alike come from different tables or passages of the source.

What was measured:
[1] = test system: Bacillus cereus ATCC 10876; test: Disc diffusion antimicrobial test; assay type: cell-based; settings: includes 6 mm disc, 24 h at 37 °C, racemic compounds
Protocol: (§1) The antimicrobial activity of racemic halolactones were tested towards three bacterial strains classified as Gram-negative (Escherichia coli ATCC 25922, Pseudomonas aeruginosa ATCC 27853, Proteus mirabilis ATCC […]) and Gram-positive (Bacillus cereus ATCC 10876) and two fungal strains (Candida albicans ATCC 10231 and Aspergillus brasiliensis ATCC 16404). The microorganisms were supplied by Pasteur Institute of Algiers (Algeria).
(§2) The tests were carried out using the disc diffusion method. Briefly, overnight microbial cultures were adjusted to 0.5 MacFarland turbidity standards and spread in Petri dishes containing Mueller–Hinton and Sabouraud media for bacteria and fungi, respectively. The paper discs (6 mm diameter) was sterilized and impregnated with lactone dissolved in DMSO. Then, the discs were placed on the inoculated agar. The negative controls were discs immersed in pure DMSO. The plates were incubated for 24 h at 37 °C (bacteria) and for 48 h at 25 °C (yeast) and 5–7 days for fungi. Then, the inhibition zone diameters were determined in millimeters (including disc diameter of 6 mm). The test was carried out in triplicates.

[2] = test system: Escherichia coli ATCC 25922; test: Disc diffusion antimicrobial test; assay type: cell-based; settings: includes 6 mm disc, 24 h at 37 °C, racemic compounds
Protocol: as §1, §2

[3] = test system: Proteus mirabilis ATCC 35659; test: Disc diffusion antimicrobial test; assay type: cell-based; settings: includes 6 mm disc, 24 h at 37 °C, racemic compounds
[4] = test system: GL-1 (canine B-cell leukemia); test: Antiproliferative activity (formazan viability); assay type: cell-based; settings: GL-1 cell line, mean ± SD
Protocol: (§3) The GL-1 (canine B-cell leukemia) was obtained from Yasuhito Fujino and Hajime Tsujimoto from the Department of Veterinary Internal Medicine University of Tokyo [27], the CLB70 (canine B-cell chronic leukemia) was described earlier by Pawlak et al.. The GL-1 cells were maintained in RPMI 1640 medium with 10% fetal bovine serum (FBS), 100 µg/mL streptomycin, 100 U/mL penicillin and 2 mM L-glutamine (Sigma-Aldrich, Stainheim, Germany). The CLB70 cell line was maintained in Advanced RPMI (Gibco) medium with 100 µg/mL streptomycin, 100 U/mL penicillin and 20% heat-inactivated FBS. Cells were cultured at 37 °C in the incubator with 95% humidified atmosphere and 5% CO2. The antiproliferative activity was tested according to the procedure described previously. The tested lactones were prepared within a concentration range of 6.25–50 µg/mL in the culture medium (DMSO concentration was less than 1% in each dilution). The activity curves used to calculate IC50 are presented in the (Supplementary information Figures S7–S18). The optical density of formed formazan in untreated control cells was assigned as 100%. Viability of test samples was calculated as: % Viability = (average OD for test group/average OD for control group) × 100. The results were determined from more than 3 independent experiments (four wells each) and presented as mean IC50 value ± SD.

[5] = test system: CLB70 (canine B-cell chronic leukemia); test: Antiproliferative activity (formazan viability); assay type: cell-based; settings: mean ± SD
Protocol: as §3

[6] = Canis lupus familiaris, B-cell, read-out: IC50
[7] = Canis lupus familiaris, CLB70, CLB70 cell line, read-out: IC50

| melting point | IC50 [4, 6] | IC50 [5, 7] | SMILES | diameter of inhibition zone [3] | other results |
| --- | --- | --- | --- | --- | --- |
|  |  |  | CC(I)C12CCCCC1CC(=O)O2 (racemic) [rac-6, 1-(1′-Iodoethyl)-9-Oxabicyclo[4.3.0]nonan-8-one] | 11 ± 0.00 mm | inhibition zone [1]: 12 ± 0.00 mm; inhibition zone [2]: 7 ± 0.00 mm |
|  |  |  | CC(Br)C12CCCCC1CC(=O)O2 (racemic) [rac-7, 1-(1′-Bromoethyl)-9-Oxabicyclo[4.3.0]nonan-8-one] | 12 ± 0.35 mm | inhibition zone [1]: 8 ± 0.00 mm; inhibition zone [2]: 9 ± 0.00 mm |
| 104 to 107 °C | 13.8 ± 1.08 µg/mL (≈ 46.8 µM) | 19.6 ± 0.51 µg/mL (≈ 66.6 µM) | C[C@@H](I)[C@]12CCCC[C@H]1CC(=O)O2 [6a, (−)-(1S,6S,1′R)-1-(1′-Iodoethyl)-9-oxabicyclo[4.3.0]nonan-8-one] |  |  |
|  | 14.5 ± 2.38 µg/mL (≈ 49.4 µM) | 19.93 ± 0.07 µg/mL (≈ 67.8 µM) | C[C@H](I)[C@@]12CCCC[C@@H]1CC(=O)O2 [6b, (+)-(1R,6R,1′S)-1-(1′-Iodoethyl)-9-oxabicyclo[4.3.0]nonan-8-one] |  |  |
| 44 to 48 °C | 15.6 ± 0.79 µg/mL (≈ 62.9 µM) | 19.4 ± 0.35 µg/mL (≈ 78.5 µM) | C[C@@H](Br)[C@]12CCCC[C@H]1CC(=O)O2 [7a, (−)-(1S,6S,1′R)-1-(1′-Bromoethyl)-9-oxabicyclo[4.3.0]nonan-8-one] |  |  |
|  | 14.9 ± 1.93 µg/mL (≈ 60.5 µM) | 28.6 ± 4.89 µg/mL (≈ 116 µM) | C[C@H](Br)[C@@]12CCCC[C@@H]1CC(=O)O2 [7b, (+)-(1R,6R,1′S)-1-(1′-Bromoethyl)-9-oxabicyclo[4.3.0]nonan-8-one] |  |  |
| 37 to 40 °C | 17.2 ± 3.62 µg/mL (≈ 84.7 µM) | 23.9 ± 5.14 µg/mL (≈ 118 µM) | C[C@@H](Cl)[C@]12CCCC[C@H]1CC(=O)O2 [8a, (−)-(1S,6S,1′R)-1-(1′-Chloroethyl)-9-oxabicyclo[4.3.0]nonan-8-one] |  |  |
|  | 18.4 ± 1.46 µg/mL (≈ 90.9 µM) | 11.4 ± 0.4 µg/mL (≈ 56.2 µM) | C[C@H](Cl)[C@@]12CCCC[C@@H]1CC(=O)O2 [8b, (+)-(1R,6R,1′S)-1-(1′-Chloroethyl)-9-oxabicyclo[4.3.0]nonan-8-one] |  | IC50 [4]: 11.40 ± 0.40 µg/mL (≈ 56.2 µM); IC50 ([5]; CLB70 cell line): 18.43 ± 1.46 µg/mL (≈ 90.9 µM) |
|  | 4.4 ± 1.14 µg/mL (≈ 7.48 µM) | 14.3 ± 2.83 µg/mL (≈ 24.3 µM) | COc1cc([C@@H]2c3cc4c(cc3[C@@H](O[C@@H]3O[C@@H]5CO[C@@H](C)O[C@H]5[C@H](O)[C@H]3O)[C@H]3COC(=O)[C@H]23)OCO4)cc(OC)c1O [Etoposide, reference compound] |  |  |
|  |  |  | CC(Cl)C12CCCCC1CC(=O)O2 (centres unmarked) [compound 8, 1-(1′-Chloroethyl)-9-Oxabicyclo[4.3.0]nonan-8-one] | 12 ± 0.00 mm |  |
